Experimental data: patent publication US20060167075A1, “Modulators of FAAH” (priority 2005, published 2006)

How the values were obtained:
FAAH [1] = target: T1, FAAH (Rattus norvegicus, UniProt P97612); test: FAAH activity in rat brain membrane (RBM) homogenate, 3H-anandamide hydrolysis; assay type: biochemical; conditions: 10 min at 37° C., pH 6.5
T1 construct: FAAH activity was assayed in the respective homogenates (Rat brain or Human brain); from tissue; host or cells: rat brain membrane homogenate (Charles River CD strain)
T1 sequence (P97612 1-579): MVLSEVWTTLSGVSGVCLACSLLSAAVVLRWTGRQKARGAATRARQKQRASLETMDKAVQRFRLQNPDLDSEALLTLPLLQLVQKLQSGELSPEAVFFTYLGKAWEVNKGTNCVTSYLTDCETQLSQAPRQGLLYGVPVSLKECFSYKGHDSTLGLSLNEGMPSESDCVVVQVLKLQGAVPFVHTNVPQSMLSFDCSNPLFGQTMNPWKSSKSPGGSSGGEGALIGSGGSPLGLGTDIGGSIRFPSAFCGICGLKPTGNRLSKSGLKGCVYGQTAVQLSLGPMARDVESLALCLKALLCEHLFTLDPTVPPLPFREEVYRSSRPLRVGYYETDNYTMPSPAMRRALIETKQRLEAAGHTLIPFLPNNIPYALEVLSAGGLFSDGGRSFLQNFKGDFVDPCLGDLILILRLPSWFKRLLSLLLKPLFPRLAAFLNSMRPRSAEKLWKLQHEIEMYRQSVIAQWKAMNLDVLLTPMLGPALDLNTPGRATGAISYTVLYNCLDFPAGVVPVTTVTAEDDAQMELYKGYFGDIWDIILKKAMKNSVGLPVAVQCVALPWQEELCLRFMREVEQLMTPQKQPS
Procedure: (§1) To assess FAAH inhibition, compounds were tested in an assay using rat brain microsomes and an assay using human brain microsomes using the methods described below.
Nine adult rats (Charles River CD strain, female, 200 g) were anaesthetized with isofluorane and rapidly decapitated. Each brain was quickly removed and chilled in tubes (3 brains per tube) on ice. Total wet weight of the 9 brains was ˜18 g. 25 mL of homogenization buffer (20 mM HEPES buffer, pH 7.0, with 1 mM MgCl2) was added to each tube. The brains were homogenized on ice for 1 minute using an Omni GLH homogenizer (Omni International, Marietta, Ga.). The homogenates were transferred to three centrifuge tubes and centrifuged at 36,500 g for 20 minutes at 4° C. The supernatant was discarded and each pellet was re-suspended in 25 ml homogenization buffer. The resuspended material was again centrifuged (36,500g, 20 min at 4° C.). The pellets were combined by resuspension in 10 mL of homogenization buffer and incubated in a 37° C. water bath for 15 min. The tube was then placed on ice for 5 min followed by centrifugation at 36,500 g for 20 minutes at 4° C. The supernatant was discarded and the membrane pellet was then resuspended in 40 mL of resuspension buffer (50 mM Tris-HCl buffer, pH 7.4, containing 1 mM EDTA and 3 mM MgCl2). A Bradford Protein assay was performed to determine protein concentration. […]
(§2) Samples were placed on ice to terminate the reactions. […] Radioactivity (corresponding to FAAH-catalyzed breakdown of ^3H-anandamide) found in aliquots (0.2 ml) of the aqueous phase was determined by liquid scintillation counting with quench correction.
(§3) The method of Wilson et al. was modified by acidifying the reaction mixtures by the addition of 10 μl of sodium phosphate solution [0.5M (pH 2.0)] after reactions were incubated at 37° C. for 10 min and chilled on ice. […] The columns were centrifuged and the eluate was counted as described by Wilson et al.

FAAH [2] = target: T2, FAAH (Homo sapiens, UniProt O00519); test: FAAH activity in human brain membrane (HBM) homogenate, 3H-anandamide hydrolysis; assay type: biochemical; conditions: 10 min at 37° C., pH 6.5
T2 construct: FAAH activity was assayed in the respective homogenates (Rat brain or Human brain); tissue Analytical Biological Services (ABS), Inc; host or cells: human brain cortex membrane homogenate, pooled from three donors
T2 sequence (O00519 1-579): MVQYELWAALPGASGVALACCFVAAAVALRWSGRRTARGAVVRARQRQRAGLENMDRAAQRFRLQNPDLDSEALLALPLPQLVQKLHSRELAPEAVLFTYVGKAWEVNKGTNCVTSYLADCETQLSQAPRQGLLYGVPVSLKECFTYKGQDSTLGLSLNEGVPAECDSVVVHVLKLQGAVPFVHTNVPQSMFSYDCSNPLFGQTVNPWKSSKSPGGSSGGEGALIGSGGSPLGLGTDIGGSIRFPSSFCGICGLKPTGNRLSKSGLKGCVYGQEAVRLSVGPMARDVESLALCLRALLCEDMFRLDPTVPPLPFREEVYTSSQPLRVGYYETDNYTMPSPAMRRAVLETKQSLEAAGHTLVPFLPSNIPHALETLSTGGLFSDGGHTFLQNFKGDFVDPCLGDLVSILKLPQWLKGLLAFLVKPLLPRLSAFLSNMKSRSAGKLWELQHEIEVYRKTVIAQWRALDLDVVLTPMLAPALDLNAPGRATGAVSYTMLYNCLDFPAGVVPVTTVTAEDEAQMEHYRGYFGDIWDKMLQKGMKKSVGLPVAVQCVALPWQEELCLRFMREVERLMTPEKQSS
Procedure: as §1
10 g of normal human brain cortex tissue pooled from three donors was purchased from Analytical Biological Services (ABS), Inc. (Wilmington, Del.). The tissue had been collected by ABS, Inc. ˜4 hrs post mortem and was flash frozen and stored at −80° C. The brain tissue was thawed and transferred to a large ceramic mortar on ice. 50 mL of ice-cold homogenization buffer (20 mM HEPES buffer, pH 7.0, with 1 mM MgCl2) was added to the mortar and the tissue was homogenized with a pestle. The homogenate was centrifuged at 36,500 g for 20 minutes at 4° C. The supernatants were discarded and the pellets re-suspended in homogenization buffer and centrifuged as before. The supernatants were again discarded and the pellets were re-suspended in 30 ml homogenization buffer and incubated in a 37° C. water bath for 20 min. The homogenate was then centrifuged as before. The supernatant was discarded and the membrane pellets were re-suspended in 30 ml resuspension buffer (50 mM Tris-HCl buffer, pH 7.4, containing 1 mM EDTA and 3 mM MgCl2). A Bradford Protein assay was performed to determine protein concentration. The protein suspension was aliquotted into screw cap Cryo tubes each containing ˜200 μL of suspension, flash frozen in liquid nitrogen and stored at −80° C. until used for the assay.
as §2, §3

With Cc1ccc(-c2cc(C(F)(F)F)nn2-c2ccc(S(N)(=O)=O)cc2)cc1 [Celecoxib, 4-[[5-(p-tolyl)-3-(trifluoromethyl)-1H-pyrazol-1-yl]]benzenesulfonamide] the IC50 (FAAH [1]) was 167 µM.

In the case of COc1ccc2c(c1)c(CC(=O)O)c(C)n2C(=O)c1ccc(Cl)cc1 [Indomethacin], the IC50 (FAAH [2]) is reported as 96 µM.

In the case of CS(=O)(=O)c1ccc(C2=C(c3ccccc3)C(=O)OC2)cc1 [Rofecoxib], the IC50 (FAAH [1]) is reported as 452 µM and the IC50 (FAAH [2]) is reported as 198 µM.

With Cc1onc(-c2ccccc2)c1-c1ccc(S(N)(=O)=O)cc1 [Valdecoxib, 4-(5-methyl-3-phenyl-isoxazol-4-yl)benzenesulfonamide] the IC50 (FAAH [1]) was 280 µM and the IC50 (FAAH [2]) was 41 µM.
